Assays:
Type in all cases: cell-based
[1] = tested on: Primary human epidermal keratinocytes, HeKa; assay: HeKa cytokine release (IL-8); settings: Homo sapiens, HEKa, 6 h, read-out: HeKa cytokine release (IL-8) Rel EC50 range
How it was run: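 Seeded cells exposed to compound dilutions for 6 h at 37° C; IL-8 in supernatant quantified by MSD sandwich electrochemiluminescence immunoassay. Effects normalized to positive control (1.5×10^−7 M PEP0005), four-parameter sigmoidal fit; Rel EC50 is concentration midway between fitted top and bottom.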

HeLa cells = assay: Necrosis assay; settings: Homo sapiens, HeLa, 0.5 h, read-out: HeLa necrosis EC50 range
How it was run: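 HeLa cells treated with compound at 10 μM to 400 μM (final) for 30 min at 37° C., viability then measured by PrestoBlue fluorescence (ex 535/em 630 nm). Normalized to 1% DMSO and 400 μM ingenol mebutate controls; AbsEC50 from four-parameter sigmoidal fit.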

[2] = tested on: PMN's (polymorphonuclear leukocytes); assay: Neutrophil oxidative burst; settings: Leukocyte, 40 min, read-out: Neutrophil oxidative burst Rel EC50 range, PMN from buffy coats, 40 min at RT, hydroethidine fluorescence; normalized to 5×10^−7 M PEP0005
How it was run: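 Human buffy-coat neutrophils (2.5×10^5/well) in HBSS with 0.1% BSA, 5 mM glucose treated with compound premixed with 10 μM hydroethidine for 40 min at RT; fluorescence read at 485/579 nm. Normalized to 5×10^−7 M PEP0005; Rel EC50 is midway between fitted top and bottom, Abs EC50 gives 50% of PEP0005 maximum.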

Row | SMILES | EC50 [1] [nM] | EC50 (HeLa cells) [nM] | EC50 [2] [nM]
1 | CC1=C[C@]23C(=O)[C@@H](C=C(CO)[C@@H](O)[C@]2(O)[C@H]1OC(=O)N(C)c1cccc(C)c1)[C@H]1[C@@H](C[C@H]3C)C1(C)C [Compound 743, Ingenol 3-(N-methyl-N-(3-methyl-phenyl)-carbamate)] | < 20 | 150000 to 350000 | < 20
2 | CC1=C[C@]23C(=O)[C@@H](C=C(CO)[C@@H](O)[C@]2(O)[C@H]1OC(=O)c1nn(C)cc1Cl)[C@H]1[C@@H](C[C@H]3C)C1(C)C [Compound 526, Ingenol 3-(4-chloro-1-methyl-pyrazole-3-carboxylate)] | > 100 | > 350000 | 20 to 100
3 | CC1=C[C@]23C(=O)[C@@H](C=C(CO)[C@@H](O)[C@]2(O)[C@H]1OC(=O)c1ccnn1-c1ccccc1)[C@H]1[C@@H](C[C@H]3C)C1(C)C [Compound 505, Ingenol 3-(2-phenylpyrazole-3-carboxylate)] | < 20 | < 150000 | < 20
4 | CC1=C[C@]23C(=O)[C@@H](C=C(CO)[C@@H](O)[C@]2(O)[C@H]1OC(=O)N1CCOc2ccccc21)[C@H]1[C@@H](C[C@H]3C)C1(C)C [Compound 737, Ingenol 3-(2,3-dihydro-1,4-benzoxazine-4-carboxylate)] | < 20 | < 150000 | < 20
5 | CC1=C[C@]23C(=O)[C@@H](C=C(CO)[C@@H](O)[C@]2(O)[C@H]1OC(=O)c1c(-c2ccccc2)cnn1C)[C@H]1[C@@H](C[C@H]3C)C1(C)C [Compound 557, Ingenol 3-(2-methyl-4-phenyl-pyrazole-3-carboxylate)] | < 20 | < 150000 | < 20
6 | CC1=C[C@]23C(=O)[C@@H](C=C(CO)[C@@H](O)[C@]2(O)[C@H]1OC(=O)N(C)C1CCCCC1)[C@H]1[C@@H](C[C@H]3C)C1(C)C [Compound 709, Ingenol 3-(N-cyclohexyl-N-methyl-carbamate)] | < 20 | 150000 to 350000 | < 20
7 | CC1=C[C@]23C(=O)[C@@H](C=C(CO)[C@@H](O)[C@]2(O)[C@H]1OC(=O)c1cc(C)n(C)c1C)[C@H]1[C@@H](C[C@H]3C)C1(C)C [Compound 579, Ingenol 3-(1,2,5-trimethylpyrrole-3-carboxylate)] | < 20 | 150000 to 350000 | < 20
8 | CC1=C[C@]23C(=O)[C@@H](C=C(CO)[C@@H](O)[C@]2(O)[C@H]1OC(=O)N(C)c1ccc(C#N)cc1)[C@H]1[C@@H](C[C@H]3C)C1(C)C [Compound 753, Ingenol 3-(N-(4-cyano-phenyl)-N-methyl-carbamate)] | 20 to 100 | 150000 to 350000 | 20 to 100
9 | COc1ccc2c(c1)c(C)c(C(=O)O[C@H]1C(C)=C[C@]34C(=O)[C@@H](C=C(CO)[C@@H](O)[C@]13O)[C@H]1[C@@H](C[C@H]4C)C1(C)C)n2C [Compound 572, Ingenol 3-(5-methoxy-1,3-dimethyl-indole-2-carboxylate)] | < 20 | < 150000 | < 20
10 | CC1=C[C@]23C(=O)[C@@H](C=C(CO)[C@@H](O)[C@]2(O)[C@H]1OC(=O)c1c(-c2ccccc2)c2ccccc2n1C)[C@H]1[C@@H](C[C@H]3C)C1(C)C [Compound 574, Ingenol 3-(1-methyl-3-phenyl-indole-2-carboxylate)] | < 20 | < 150000 | < 20
11 | CC1=C[C@]23C(=O)[C@@H](C=C(CO)[C@@H](O)[C@]2(O)[C@H]1OC(=O)N(C)c1ccccc1)[C@H]1[C@@H](C[C@H]3C)C1(C)C [Compound 705, Ingenol 3-(N-methyl-N-phenyl-carbamate)] | < 20 | 150000 to 350000 | < 20
12 | CC1=C[C@]23C(=O)[C@@H](C=C(CO)[C@@H](O)[C@]2(O)[C@H]1OC(=O)c1c(C)coc1C)[C@H]1[C@@H](C[C@H]3C)C1(C)C [Compound 529, Ingenol 3-(2,4-dimethylfuran-3-carboxylate)] | < 20 | < 150000 | < 20
13 | CC1=C[C@]23C(=O)[C@@H](C=C(CO)[C@@H](O)[C@]2(O)[C@H]1OC(=O)c1c(-c2ccccc2)nn(C)c1C)[C@H]1[C@@H](C[C@H]3C)C1(C)C [Compound 559, Ingenol 3-(1,5-dimethyl-3-phenyl-pyrazole-4-carboxylate)] | < 20 | 150000 to 350000 | < 20
14 | CC1=C[C@]23C(=O)[C@@H](C=C(CO)[C@@H](O)[C@]2(O)[C@H]1OC(=O)c1c(C)n(C)c2ccccc12)[C@H]1[C@@H](C[C@H]3C)C1(C)C [Compound 564, Ingenol 3-(1,2-dimethylindole-3-carboxylate)] | < 20 | < 150000 | < 20
15 | CC1=C[C@]23C(=O)[C@@H](C=C(CO)[C@@H](O)[C@]2(O)[C@H]1OC(=O)N(C)CC1CC1)[C@H]1[C@@H](C[C@H]3C)C1(C)C [Compound 717, Ingenol 3-(N-methyl-N-(cyclopropylmethyl)-carbamate)] | < 20 | > 350000 | < 20
16 | CC1=C[C@]23C(=O)[C@@H](C=C(CO)[C@@H](O)[C@]2(O)[C@H]1OC(=O)c1nonc1C)[C@H]1[C@@H](C[C@H]3C)C1(C)C [Compound 567, Ingenol 3-(4-methyl-1,2,5-oxadiazole-3-carboxylate)] | > 100 | > 350000 | 20 to 100
17 | CC1=C[C@]23C(=O)[C@@H](C=C(CO)[C@@H](O)[C@]2(O)[C@H]1OC(=O)N1Cc2ccccc2C1)[C@H]1[C@@H](C[C@H]3C)C1(C)C [Compound 745, Ingenol 3-(isoindoline-2-carboxylate)] | < 20 | 150000 to 350000 | < 20
18 | CC1=C[C@]23C(=O)[C@@H](C=C(CO)[C@@H](O)[C@]2(O)[C@H]1OC(=O)c1c(C)ccn1C)[C@H]1[C@@H](C[C@H]3C)C1(C)C [Compound 576, Ingenol 3-(1,3-dimethylpyrrole-2-carboxylate)] | < 20 | < 150000 | < 20
19 | CC1=C[C@]23C(=O)[C@@H](C=C(CO)[C@@H](O)[C@]2(O)[C@H]1OC(=O)c1cnnc2ccccc12)[C@H]1[C@@H](C[C@H]3C)C1(C)C [Compound 514, Ingenol 3-(cinnoline-4-carboxylate)] | > 100 | < 150000 | > 100
20 | COc1nc(C)c(C(=O)O[C@H]2C(C)=C[C@]34C(=O)[C@@H](C=C(CO)[C@@H](O)[C@]23O)[C@H]2[C@@H](C[C@H]4C)C2(C)C)s1 [Compound 568, Ingenol 3-(2-methoxy-4-methyl-thiazole-5-carboxylate)] | 20 to 100 | 150000 to 350000 | 20 to 100
21 | COc1ccc(-c2cnn(C)c2C(=O)O[C@H]2C(C)=C[C@]34C(=O)[C@@H](C=C(CO)[C@@H](O)[C@]23O)[C@H]2[C@@H](C[C@H]4C)C2(C)C)cc1 [Compound 554, Ingenol 3-(4-(4-methoxyphenyl)-2-methyl-pyrazole-3-carboxylate)] | < 20 | < 150000 | < 20
22 | CC1=C[C@]23C(=O)[C@@H](C=C(CO)[C@@H](O)[C@]2(O)[C@H]1OC(=O)c1ccc(C)n1C)[C@H]1[C@@H](C[C@H]3C)C1(C)C [Compound 583, Ingenol 3-(1,5-dimethylpyrrole-2-carboxylate)] | < 20 | 150000 to 350000 | < 20
23 | CC1=C[C@]23C(=O)[C@@H](C=C(CO)[C@@H](O)[C@]2(O)[C@H]1OC(=O)c1c(C)nn(C)c1C)[C@H]1[C@@H](C[C@H]3C)C1(C)C [Compound 566, Ingenol 3-(1,3,5-trimethylpyrazole-4-carboxylate)] | 20 to 100 | > 350000 | 20 to 100
24 | CC1=C[C@]23C(=O)[C@@H](C=C(CO)[C@@H](O)[C@]2(O)[C@H]1OC(=O)c1c(C(C)C)noc1C)[C@H]1[C@@H](C[C@H]3C)C1(C)C [Compound 518, Ingenol 3-(3-isopropyl-5-methyl-isoxazole-4-carboxylate)] | < 20 | < 150000 | < 20
25 | CC1=C[C@]23C(=O)[C@@H](C=C(CO)[C@@H](O)[C@]2(O)[C@H]1OC(=O)N(C)c1ccccc1C)[C@H]1[C@@H](C[C@H]3C)C1(C)C [Compound 732, Ingenol 3-(N-methyl-N-(2-methyl-phenyl)-carbamate)] | < 20 | 150000 to 350000 | < 20
26 | CC1=C[C@]23C(=O)[C@@H](C=C(CO)[C@@H](O)[C@]2(O)[C@H]1OC(=O)c1ncoc1-c1ccccc1)[C@H]1[C@@H](C[C@H]3C)C1(C)C [Compound 516, Ingenol 3-(5-phenyloxazole-4-carboxylate)] | 20 to 100 | < 150000 | < 20

— patent US9708286B2, “Ingenol-3-acylates III and ingenol-3-carbamates” (LEO Laboratories Limited, priority 2010, dated 2017)
